Publication PMC11859928, “Design, Synthesis, and Antiproliferative Activity of Novel Indole/1,2,4-Triazole Hybrids as Tubulin Polymerization Inhibitors” (Pharmaceuticals, 2025)
Like-named read-outs stand apart in the source and are kept apart here.

Key:
SN12C = assay: NCI five-dose assay; format: cell-based, human; settings: five dose levels
SF-295 = assay: NCI five-dose assay; format: cell-based, human; settings: SF-295, five dose levels
M14 = assay: NCI five-dose assay; format: cell-based, human; settings: M14, five dose levels
SNB-75 = assay: NCI five-dose assay; format: cell-based, human; settings: SNB-75, five dose levels
MALME-3M = assay: NCI five-dose assay; format: cell-based, human; settings: five dose levels
UO-31 = assay: NCI five-dose assay; format: cell-based, human; settings: UO-31, five dose levels
COLO205 = assay: NCI five-dose assay; format: cell-based, human; settings: COLO205, five dose levels
U251 = assay: NCI five-dose assay; format: cell-based, human; settings: U251, five dose levels
Leukemia subpanel = assay: NCI five-dose assay, subpanel mean; format: cell-based, human
Melanoma subpanel = assay: NCI five-dose assay, subpanel mean; format: cell-based, human
NCI-H322M = assay: NCI five-dose assay; format: cell-based, human; settings: five dose levels
SK-OV-3 = assay: NCI five-dose assay; format: cell-based, human; settings: Homo sapiens, SK-OV-3, five dose levels
SK-MEL-5 = assay: NCI five-dose assay; format: cell-based, human; settings: SK-MEL-5, five dose levels
HCT-15 = assay: NCI five-dose assay; format: cell-based, human; settings: HCT-15, five dose levels
NCI-H522 = assay: NCI five-dose assay; format: cell-based, human; settings: NCI-H522, five dose levels
MDA-MB-435 = assay: NCI five-dose assay; format: cell-based, human; settings: MDA-MB-435, five dose levels
[1] = tested on: panel of 60 human tumor cell lines; assay: NCI five-dose assay, full panel; format: cell-based
A549/ATCC = assay: NCI five-dose assay; format: cell-based, human; settings: five dose levels
SR = assay: NCI five-dose assay; format: cell-based, human; settings: five dose levels
NCI-H23 = assay: NCI five-dose assay; format: cell-based, human; settings: NCI-H23, five dose levels
RXF393 = assay: NCI five-dose assay; format: cell-based, human; settings: RXF393, five dose levels
RPMI-8226 = assay: NCI five-dose assay; format: cell-based, human; settings: RPMI-8226, five dose levels
NCI/ADR-RES = assay: NCI five-dose assay; format: cell-based, human; settings: five dose levels
SK-MEL-28 = assay: NCI five-dose assay; format: cell-based, human; settings: SK-MEL-28, five dose levels
786-0 = assay: NCI five-dose assay; format: cell-based, human; settings: 786-0, five dose levels
HCT-116 = assay: NCI five-dose assay; format: cell-based, human; settings: HCT-116, five dose levels
[2] = Homo sapiens, read-out: GI50 Conc. per Cell Lines
[3] = Homo sapiens, read-out: LC50 (the source's name)

O/N=C(\CSc1nnc(-c2c[nH]c3ccccc23)n1-c1ccccc1)c1ccc(Cl)cc1 [Compound 7j, (Z)-2-((5-(1H-Indol-3-yl)-4-phenyl-4H-1,2,4-triazol-3-yl)thio)-1-(4-chlorophenyl) Ethanone Oxime]
GI50 (SN12C; [2]): 3.79 µM
CC50 (SN12C; [3]): > 100 µM
TGI Conc. per Cell Lines (SN12C): 16.3 µM
GI50 (SF-295; [2]): 3.11 µM
CC50 (SF-295; [3]): > 100 µM
TGI Conc. per Cell Lines (SF-295): 13.4 µM
GI50 (M14; [2]): 3.15 µM
CC50 (M14; [3]): > 100 µM
TGI Conc. per Cell Lines (M14): 14.1 µM
GI50 (SNB-75; [2]): 1.68 µM
CC50 (SNB-75; [3]): > 100 µM
TGI Conc. per Cell Lines (SNB-75): 5.80 µM
GI50 (MALME-3M; [2]): 4.99 µM
CC50 (MALME-3M; [3]): > 100 µM
TGI Conc. per Cell Lines (MALME-3M): 27.5 µM
GI50 (UO-31; [2]): 2.88 µM
CC50 (UO-31; [3]): 71.1 µM
TGI Conc. per Cell Lines (UO-31): 15.7 µM
TGI Conc. per Cell Lines (COLO205): 25.9 µM
GI50 (COLO205; Homo sapiens, COLO 205, read-out: GI50 Conc. per Cell Lines): 4.47 µM
CC50 (COLO205; Homo sapiens, COLO 205, read-out: LC50 (the source's name)): > 100 µM
GI50 (U251; Homo sapiens, U-251, read-out: GI50 Conc. per Cell Lines): 4.73 µM
CC50 (U251; Homo sapiens, U-251, read-out: LC50 (the source's name)): 46.9 µM
TGI Conc. per Cell Lines (U251): 81.2 µM
GI50 (Leukemia subpanel; Homo sapiens, Leukemia, average sensitivity of all cell lines of the subpanel, read-out: GI50 Subpanel MID b): 2.8 µM
GI50 Selectivity Ratio (MID a/MID b) (Leukemia subpanel; Leukemia subpanel): 1.30
GI50 (Melanoma subpanel; Homo sapiens, Melanoma, average sensitivity of all cell lines of the subpanel, read-out: GI50 Subpanel MID b): 3.42 µM
GI50 Selectivity Ratio (MID a/MID b) (Melanoma subpanel; Melanoma subpanel): 1.06
GI50 (NCI-H322M; [2]): 5.71 µM
CC50 (NCI-H322M; [3]): > 100 µM
TGI Conc. per Cell Lines (NCI-H322M): 7.33 µM
GI50 (SK-OV-3; read-out: GI50 Conc. per Cell Lines): 3.38 µM
CC50 (SK-OV-3; read-out: LC50 (the source's name)): 71.4 µM
GI50 (SK-MEL-5; [2]): 3.87 µM
CC50 (SK-MEL-5; [3]): 38.7 µM
TGI Conc. per Cell Lines (SK-MEL-5): 19.5 µM
TGI Conc. per Cell Lines (HCT-15): 13.6 µM
GI50 (HCT-15; [2]): 3.2 µM
CC50 (HCT-15; [3]): > 100 µM
GI50 (NCI-H522; [2]): 3.11 µM
CC50 (NCI-H522; [3]): 81.7 µM
TGI Conc. per Cell Lines (NCI-H522): 12.5 µM
GI50 (MDA-MB-435; [2]): 1.74 µM
CC50 (MDA-MB-435; [3]): 60.5 µM
TGI Conc. per Cell Lines (MDA-MB-435): 3.41 µM
GI50 ([1]; average sensitivity of all cell lines, read-out: GI50 MID a): 3.65 µM
GI50 ([1]; most of the tested cell lines across nine subpanels, read-out: GI50 values, range across nine subpanels): 2.45 to 5.23 µM
GI50 (A549/ATCC; [2]): 3.35 µM
CC50 (A549/ATCC; [3]): > 100 µM
TGI Conc. per Cell Lines (A549/ATCC): 16.8 µM
GI50 (SR; [2]): 4.74 µM
CC50 (SR; [3]): > 100 µM
TGI Conc. per Cell Lines (SR): >100 µM
GI50 (NCI-H23; [2]): 6.52 µM
CC50 (NCI-H23; [3]): > 100 µM
TGI Conc. per Cell Lines (NCI-H23): >100 µM
LC50 (concentration killing 50% of cells) (RXF393; Homo sapiens, RXF 393): 46.3 µM
GI50 (RXF393; Homo sapiens, RXF 393, read-out: GI50 Conc. per Cell Lines): 2.22 µM
TGI Conc. per Cell Lines (RXF393): 6.29 µM
GI50 (RPMI-8226; [2]): 2.38 µM
CC50 (RPMI-8226; [3]): > 100 µM
TGI Conc. per Cell Lines (RPMI-8226): 7.29 µM
LC50 (NCI/ADR-RES; Homo sapiens): > 100 µM
GI50 (NCI/ADR-RES; [2]): 2.95 µM
TGI Conc. per Cell Lines (NCI/ADR-RES): 9.50 µM
GI50 (SK-MEL-28; [2]): 4.41 µM
CC50 (SK-MEL-28; [3]): 57.7 µM
TGI Conc. per Cell Lines (SK-MEL-28): >100 µM
TGI Conc. per Cell Lines (786-0): >100 µM
LC50 (50% lethal concentration) (786-0; Homo sapiens): 93.5 µM
GI50 (786-0; [2]): 7.29 µM
TGI Conc. per Cell Lines (HCT-116): 13.7 µM
GI50 (HCT-116; [2]): 2.92 µM
CC50 (HCT-116; [3]): > 100 µM
